Measurements from US20260294845A1, “Uses of Adrenalone to Manage Cardiotoxicity or Cardiovascular Disorders” (Emory University, priority 2023, published 2026).
Entries after “also recorded” stand apart in the source; their conditions may differ.

How the values were obtained:
hiPSC-CMs [1] = assay: Mitochondrial oxidative stress caused by bortezomib (PS-341); type: cell-based, human; conditions: with bortezomib
Description: (§1) Cardiomyocytes derived from human pluripotent stem cells (hiPSC-CMs) were provide a new platform for the studies of cancer drug-induced side effects and therapies. Using these cells, lead molecules were identified indicating protective properties on cardiomyocytes from the toxic effect of chemotherapy agents and ethanol (EtOH). […] Oxidative stress is a common molecular mechanism for cardiotoxicity induced by chemotherapy including proteosome inhibitors.

hiPSC-CMs [2] = assay: Effects of chemotherapeutic agents on function of hiPSC-CMs; type: cell-based, human; conditions: melphalan treatment
patients = conditions: cancer patients on therapy; cited from earlier work
proteasome [3] = assay: Proteasome activity in RPMI8226 cells after carfilzomib with or without 4H10; type: cell-based; conditions: 4H10 with carfilzomib, 24 h
Experimental: (§2) (top) Proteasome activity of IMR-90 hiPSC-CMs was measured after the cells were treated with CFZ with or without 4H10 for 24 hours. (bottom, right, left) Proteasome activity and cell viability of RPMI8226 cells (cancer cells) were measured after the cells were treated with CFZ with or without 4H10 for 24 hours.
(§3) Experiments were designed to determine the effects of carfilzomib and 4H10 on proteasome activity and cell viability of RPMI8226 cell line, which has been investigated for the efficacy tests of carfilzomib in […].

hiPSC-CMs [4] = assay: Cardiac troponin T expression and mitochondrial content in EtOH-treated hiPSC-CMs; type: cell-based, human
Description: (§4) EtOH-induced cardiotoxicity shares common disease phenotypes and possibly similar underlying mechanisms with drug-induced cardiotoxicity.

proteasome [5] = assay: Proteasome activity in hiPSC-CMs after carfilzomib with or without 4H10; type: cell-based, human; conditions: 4H10 co-treatment with carfilzomib, 24 h, IMR-90 hiPSC-CMs
Experimental: as §2
The proteasome, responsible for the regulated degradation of proteins, is a key cellular component targeted by carfilzomib as part of its mechanism of action in cancer therapy. Therefore, in addition to validation of cardioprotective effects of 4H10 on cell viability and mitochondrial function, it is crucial to examine if 4H10 compromises the proteasome inhibition efficacy of carfilzomib.

hiPSC-CMs [6] = assay: Cell viability assay and cell counting (high-content imaging) of EtOH-challenged hiPSC-CMs; type: cell-based, human
Description: as §4

RPMI8226 cells = assay: Cell viability of RPMI8226 cells after carfilzomib with or without 4H10; type: cell-based; conditions: 4H10 co-treatment with carfilzomib, 24 h
Experimental: as §2, §3

hiPSC-CMs [7] = assay: Intracellular oxidative stress (ROS) of carfilzomib-treated hiPSC-CMs, DCFDA/H2DCFDA assay; type: cell-based, human; conditions: 24 h
Experimental: The quantification of oxidative stress was performed using DCFDA staining of SCVI hiPSC-CMs treated with Cfz with or without 4H10 for 24 hours.
The induction of oxidative stress is a crucial mechanism through which proteasome inhibitors induce apoptosis. To investigate if 4H10 could alleviate carfilzomib-induced increase of oxidative stress in cardiomyocytes, hiPSC-CMs were exposed to carfilzomib at 5 μM alone or together with 4H10 at various concentrations for 24 h. The production of cellular reactive oxygen species (ROS) was then measured using DCFDA/H2DCFDA assay kit.

hiPSC-CMs [8] = assay: Cell viability of hiPSC-CMs treated with carfilzomib with or without 4H10 (CellTiter-Blue); type: cell-based, human; conditions: for mitigation of carfilzomib-induced cytotoxicity: co-treatment of hiPSC-CMs with carfilzomib
Experimental: Cell viability was analyzed after IMR-90 hiPSC-CMs were treated with carfilzomib (CFZ) with or without 4H10 for 24 hours. (n=5 cultures).
(§5) A human induced pluripotent cell line (hiPSC line IMR90™, WiCell Research Institute) was fed daily on Matrigel™-coated plates with a defined medium for hiPSC culture, mTeSR1 medium. For CM differentiation, hiPSCs were induced using a growth factor-driven differentiation protocol as reported in Jha et al. Efficient differentiation of cardiomyocytes from human pluripotent stem cells with growth factors. Methods Mol Biol, 2015, 1299, 115-131. On the day of induction (day 0), medium was replaced with RPMI 1640 medium supplemented with 2% B27 minus insulin (a cell culture supplement) containing 100 ng/ml activin A. After induction for 24 h, the medium was replaced with fresh RPMI supplemented with 2% B27 minus insulin containing 10 ng/ml BMP4. From day 4 of differentiation, the medium was replaced with RPMI supplemented with 2% B27. On day 5, the cells were dissociated and reseeded into AggreWell400™ plates to acquire cardiac spheres. After 24 h, the cardiac spheres formed were collected and transferred to low-adhesion dishes for suspension culture. The medium was changed every other day. Cardiac spheres typically started beating spontaneously by day 7 to 9.
as §1
Consistently, treatment of hiPSC-CMs induced cell death and cytotoxicity. To examine if 4H10 could protect cardiomyocytes from carfilzomib-induced cytotoxicity, hiPSC-CMs were treated with carfilzomib at 5 μM alone or together with 4H10 at various concentrations for 24 h and then examined cell viability using the CellTiter-Blue Cell Viability Assay. Cells treated with DMSO (vehicle) were used as a control.

hiPSC-CMs [9] = assay: Cell viability of hiPSC-CMs treated with doxorubicin with or without 4H10 (CellTiter-Blue); type: cell-based, human
Description: Doxorubicin is a widely used chemotherapy drug for various cancers, including breast cancer, leukemia, and lymphoma. However, one significant side effect associated with doxorubicin use is cardiotoxicity. It is contemplated that 4H10 may target common mechanisms of cardiotoxicity and have a broad impact of cardioprotection since it protects hiPSC-CMs from toxicity induced by both ethanol and carfilzomib.

SCVI-273 hiPSC-CMs = assay: Cell viability of EtOH-treated hiPSC-CMs derived from SCVI-273 hiPSCs; type: cell-based, human; conditions: another cell line SCVI-273
Description: as §4

hiPSC-CMs [10] = assay: MitoTracker Red staining (mitochondrial content and activity) of carfilzomib-treated hiPSC-CMs, high-content imaging; type: cell-based, human; conditions: 24 h
Experimental: MitoTracker™ Red staining was performed in IMR-90 hiPSC-CMs treated with CFZ with or without 4H10 for 24 hours.
as §5
Mitochondria play a crucial role in energy production, cellular metabolism, and the regulation of cell death. Experiments indicate carfilzomib induces mitochondrial dysfunction in hiPSC-CMs. To assess the potential mitigating effects of 4H10 on carfilzomib-induced mitochondrial dysfunction, hiPSC-CMs were treated with carfilzomib alone or co-treated with 4H10 at various concentrations. Mitochondria were then visualized using MitoTracker™ Red dyes, which can accumulate in active mitochondria and allow for the measurement of mitochondrial content and activity in live cells.

hiPSC-CMs [11] = assay: Oxidative stress in EtOH-treated hiPSC-CMs; type: cell-based, human
Description: as §4

α1-AR [12] = conditions: literature knowledge; cited from earlier work
α1-AR [13] = assay: Staining of hiPSC-CMs with BODIPY-FL-prazosin for α1-AR expression; type: cell-based, human; conditions: fluorescent staining, α1-AR expression and localization
Description: The expression of α1-AR was detected in hiPSC-CMs based on the BODIPY FL prazosin signals.

hiPSC-CMs [14] = assay: Chronic ethanol exposure of hiPSC-CMs: cellular properties, functions and global proteomic profiling; type: cell-based, human
Experimental: Cardiomyocytes derived from human pluripotent stem cells (hiPSC-CMs) were treated with clinically relevant doses of ethanol for various durations up to 5 weeks. The treated cells were characterized for their cellular properties and functions, and global proteomic profiling was conducted.

hiPSC-CMs [15] = conditions: Liu et al., 2021; cited from earlier work
[16] = clinically relevant doses of ethanol, up to 5 weeks

CNCC(=O)c1ccc(O)c(O)c1 [Adrenalone, 1-(3,4-dihydroxyphenyl)-2-(methylamino) ethan-1-one]
mitochondrial oxidative stress caused by bortezomib (PS-341) (hiPSC-CMs [1]): reduced mitochondrial oxidative stress

melphalan
cardiotoxicity in hiPSC-CMs: cardiac function (hiPSC-CMs [2]): abnormal cardiac function | cardiotoxicity in hiPSC-CMs: oxidative stress (hiPSC-CMs [2]): induces cardiotoxicity, including oxidative stress | cardiac adverse events in patients (patients): clinically observed arrhythmias

CNCC(=O)c1ccc(O)c(O)c1 [4H10]
change of proteasome activity in RPMI8226 cells by 4H10 (proteasome [3]): did not elicit any changes | defects in expression of cardiac troponin T (hiPSC-CMs [4]): reduced | defects in mitochondrial content (hiPSC-CMs [4]): reduced | effect on proteasome inhibition activity of carfilzomib (proteasome [5]): does not interfere with the proteasome inhibition activity of carfilzomib; also recorded: did not interfere with the proteasome inhibition activity of carfilzomib | protection from alcohol-induced cytotoxicity (hiPSC-CMs [6]; hiPSC-CMs): can protect hiPSC-CMs from alcohol- and carfilzomib-induced cytotoxicity | cell survival following EtOH challenge (hiPSC-CMs [6]; hiPSC-CMs challenged with EtOH, cell viability assay and cell counting): increased cell survival dose-dependently | cell number after EtOH treatment (hiPSC-CMs [6]; high-content imaging): attenuated the reduced cell number induced by EtOH treatment | change of carfilzomib-reduced RPMI8226 viability by 4H10 co-treatment (RPMI8226 cells): does not interfere with the proteasome inhibition activity of carfilzomib and the ability of carfilzomib to kill cancer cells; also recorded: not significantly changed | DCFDA fluorescence intensity on co-treatment (hiPSC-CMs [7]; 4H10 at 5 μM or higher + carfilzomib 5 μM, dose-dependent): reduction of DCFDA fluorescence intensity | mitigation of carfilzomib-induced oxidative stress (hiPSC-CMs [7]; co-treatment with carfilzomib, SCVI hiPSC-CMs): mitigates carfilzomib-induced intracellular oxidative stress; also recorded: mitigated carfilzomib-induced oxidative stress in hiPSC-CMs in a dose-dependent manner | maximal cytoprotective effect against carfilzomib (hiPSC-CMs [8]; 4H10 at 25 μM and 50 μM + carfilzomib 5 μM, 24 h): maximal cytoprotective effect for the cells to reach viability levels similar to those from DMSO-treated cells | cell viability after co-treatment with carfilzomib and 4H10 (hiPSC-CMs [8]; carfilzomib 5 μM + 4H10 at 5 μM or higher, 24 h, compared (so in the source) with DMSO-treated cells): significantly increased cell viability | mitigation of carfilzomib-induced cytotoxicity (hiPSC-CMs [8]): protection of hiPSC-CMs from carfilzomib-induced cardiotoxicity; also recorded: reduced cytotoxicity was observed; also recorded: mitigated carfilzomib-induced cytotoxicity in a dose-dependent manner | mitigation of carfilzomib-induced cytotoxicity (hiPSC-CMs [8]; listed as adrenalone HCl): protected hiPSC-CMs from cardiotoxicity induced by carfilzomib | cell viability after co-treatment with doxorubicin and 4H10 (hiPSC-CMs [9]; 4H10 25 μM + doxorubicin 1, 2, 5 or 10 μM, 24 h, compared with doxorubicin): increased cell viability | mitigation of doxorubicin-induced cytotoxicity (hiPSC-CMs [9]; 4H10 co-treatment with doxorubicin): protects hiPSC-CMs from doxorubicin-induced cytotoxicity; also recorded: mitigated doxorubicin-induced cytotoxicity | cell viability, EtOH-treated SCVI-273 hiPSC-CMs (SCVI-273 hiPSC-CMs): increased cell viability | MitoTracker Red fluorescence intensity on co-treatment (hiPSC-CMs [10]; 4H10 at 10 μM or higher + carfilzomib, dose-dependent): increase in fluorescence intensity | mitigation of carfilzomib-induced mitochondrial defects (hiPSC-CMs [10]; co-treatment with carfilzomib): mitigates carfilzomib-induced mitochondrial defects; also recorded: mitigated carfilzomib-induced mitochondrial defects in hiPSC-CMs in a dose-dependent manner | oxidative stress in EtOH-treated hiPSC-CMs (hiPSC-CMs [11]): reduced oxidative stress

BODIPY-FL-prazosin
α1-AR affinity / antagonism (α1-AR [12]): high-affinity antagonist | BODIPY FL prazosin signals in hiPSC-CMs (α1-AR [13]): co-localized with nuclei

COc1cccc2c1C(=O)c1c(O)c3c(c(O)c1C2=O)C[C@@](O)(C(=O)CO)C[C@@H]3O[C@H]1C[C@H](N)[C@H](O)[C@H](C)O1 [doxorubicin]
cell viability after doxorubicin (hiPSC-CMs [9]; doxorubicin 1-10 μM alone, 24 h, compared with untreated cells): significant decrease in cell viability | cardiac adverse events in patients (patients): cardiotoxicity

CCO [ethanol]
Ca^2+ handling (hiPSC-CMs [14]; [16]): deranged Ca^2+ handling | action potential (hiPSC-CMs [14]; [16]): abnormal action potential | cell death (hiPSC-CMs [14]; [16]): Increased cell death | contractility (hiPSC-CMs [14]; [16]): altered contractility | oxidative stress (hiPSC-CMs [14]; [16]): Increased cell death, oxidative stress | structure development (hiPSC-CMs [14]; [16]): suppressed structure development | global proteomic profiling: dysregulated proteins (hiPSC-CMs [14]; ethanol, up to 5 weeks): Many dysregulated proteins identified by global proteomic profiling were involved in apoptosis, heart contraction, and extracellular collagen matrix | signaling pathways affected (hiPSC-CMs [14]; long-term ethanol exposure): several signaling pathways including the Wnt and TGFβ signaling pathways were affected | changes in hiPSC-CMs on chronic ethanol exposure (hiPSC-CMs [15]): induces deleterious changes in cardiomyocytes
